Data set [1] in a line: Maximal solubility of coupling agents in DMF. As to conditions: for Molarity: calculated molarity in DMF; for Wt/ml: maximal solubility, mass of agent per volume of DMF.

Where a name gives a salt, the structure may show the parent alone.

As usually defined, the melting point is the temperature of the solid-liquid transition.

Turning to “1-((dimethylimino)(morpholino)methyl)3-H-6-chlorobenzo[1,2,3]triazolo-1-ium-3-olate hexafluorophosphate [6-Cl-HDMB]”, in data set [1], the Molarity was 1.0 and the Wt/ml is listed as 0.456.
Turning to “1-((dimethylimino)(morpholino)methyl)3-H-6-trifluoromethylbenzo[1,2,3]-triazolo-1-ium-3-olate hexafluorophosphate [6-CF3HDMB]”, in data set [1], the Molarity was 1.02 and the Wt/ml was determined as 0.475.
As to “1-((dimethylimino)(morpholino)methyl)3-H-[1,2,3]triazolo[4,5-b]pyridine-1-3-olate hexafluorophosphate [HDMA]”, in data set [1], the Wt/ml worked out at 0.285.
Consider `CN(C)C(n1n[n+]([O-])c2ccc(Cl)cc21)=[N+]1CCCC1` (as salt: phosphate), for which the melting point was 192 to 193 °C.
Same read-out and setting: as for `O=c1ccccn1OC(N1CCOCC1)=[N+]1CCCC1` (as salt: phosphate), the figure is 145 to 146 °C (dec.); as for `CN(C)C(O/N=C(\C#N)c1ccccn1)=[N+](C)C` (as salt: phosphate), 169 to 171 °C.
The same measure, in the same setting: as for `C[N+](C)=C(ON=C(C#N)C#N)N1CCOCC1` (as salt: phosphate) [HDMODC, 1-[(1-(dicyanomethyleneaminooxy)-dimethylamino-morpholinomethylene)]methanaminium hexafluorophosphate], the figure is 118 to 119 °C; as for `CCOC(=O)C(C#N)=NOC(N(C)C)=[N+]1CCCC1` (as salt: phosphate) [HDmPyOCC, 1-[(1-(Cyano-2-ethoxy-2-oxoethylideneaminooxy)-dimethylamino-pyrrolodinomethylene)]methanaminium hexafluorophosphate], 126 to 127 °C (dec.); as for `CN(C)C(ON=C(C#N)C#N)=[N+]1CCCC1` (as salt: phosphate) [HDmPyODC, 1-[(1-(dicyanomethylideneaminooxy)-dimethylamino-pyrrolodinomethylene)]methanaminium hexafluorophosphate], 146 to 147 °C (dec.).
On to `[O-][n+]1nn(C(N2CCCC2)N2CCOCC2)c2cccnc21` (centres unmarked) (as salt: phosphate) [HMPyA, 1-(morpholino(pyrrolidinium-1-ylidene)methyl)-1H-[1,2,3]triazolo[4,5-I]pyridine 3-oxide hexafluorophosphate], for which the melting point was 206 to 208 °C (dec.).
Still for that read-out and setting: the value for `CCOC(=O)/C(C#N)=N/OC(N1CCOCC1)=[N+]1CCCC1` (as salt: phosphate) [HMPyOCC, 1-((1-cyano-2-ethoxy-2-oxoethylideneaminooxy)(morpholino)methylene) pyrrolidinium hexafluorophosphate] was 171 to 172 °C; that for `CCOC(=O)/C(C#N)=N/OC(N(C)C)N(C)C` (as salt: phosphate) [HTOCC, O-[Cyano(ethoxycarbonyl)methylidene)amino]-1,1,3,3-tetramethyluronium Hexafluorophosphate] was 135 to 137 °C (dec.).
